For data set [1], the system named is OATP1B1- and OATP1B3-expressing HeLa or RKO cell lines.
The test system of data set [2] is OATP1B3-expressing RKO cells.
Data set [3] has as its system OATP1B1. Put plainly: in vitro. The note with it: human.
Data set [4] concerns OATP1B3-expressing HeLa cells. The note with it: cited from earlier work.
Data set [5] has as its system OATP1B1-expressing HeLa cells. The note with it: cited from earlier work.
Data set [6] has as its system HeLa Control cells. Particulars: cited from earlier work.
Another data set relates to PP2A. The note with it: cited from earlier work.
Data set [7] concerns OATP1B3-expressing HeLa cells.
For data set [8], the system named is OATP1B1-expressing HeLa cells. Particulars: read-out: IC50 HeLa B1.
The subject of data set [9] is HeLa Control cells.
Data set [10] has as its system OATP1B1-expressing RKO cells. Particulars: read-out: IC50 RKO B1.
Data set [11] has as its system OATP1B1. Nature of the data set: in vitro. The note with it: human. This is another data set of the same source.

Read-outs that look alike come from different tables or passages of the source. Numbered stars: 1 amine (or outer) side, 2 acyl side, 3 side chain; on linkers, the order of the positions; unused ones are H or OH. Bridge positions count the residues as written; N and C are the ends. Square brackets hold non-standard residues; d marks the D form. Peptide text beside a SMILES is read from it. Adda = CO[C@@H](Cc1ccccc1)[C@@H](C)/C=C(C)/C=C/[C@H](N[*:1])[C@H](C)C(=O)[*:2]; dAsp(3S-Me) = C[C@H](C(=O)[*:3])[C@@H](N[*:1])C(=O)[*:2]; d(γGlu) = O=C(O)[C@@H](CCC(=O)[*:2])N[*:1]; NMeDha = C=C(NC)C(=O)O

One may read the IC50 as the midpoint of a concentration-inhibition curve. With `CO[C@@H](Cc1ccccc1)[C@@H](C)/C=C(C)/C=C/[C@@H]1NC(=O)[C@H](CCCCNC(=N)N)NC(=O)C[C@H](C(=O)O)NC(=O)[C@H](Cc2ccc(O)cc2)NC(=O)[C@@H](C)NC(=O)[C@H](CO)N(C)C(=O)CC[C@H](C(=O)O)NC(=O)[C@H]1C` [compound 21, [D-Asp^3,MSer^7]MC-YHar], the half-maximal inhibitory concentration (IC50) is > 1000 nM in the data set with RKO control cells (3 h), > 100 nM in [1] (human), 385 nM in data set [2] (human) and 625 nM in the data set on OATP1B1 [3]. Also, in [2], the “Ratio IC50 B1/B3 RKO” value was found to be 1.6.

`C=C1[C@@H](O)[C@@H]2O[C@]3(CC[C@H](/C=C/[C@@H](C)[C@@H]4CC(C)=C[C@@]5(O[C@H](C[C@@](C)(O)C(=O)O)CC[C@H]5O)O4)O3)CC[C@H]2O[C@@H]1[C@@H](O)C[C@H](C)[C@H]1O[C@@]2(CCCCO2)CC[C@H]1C` [compound 24, okadaic acid]: the figures for the IC50 (in data set [4]; in [5]; with HeLa Control cells [6]) were 3 nM, 2.2 nM and 7.8 nM, respectively. Besides, in data set [4], the “Ratio IC50 B1/B3 HeLa” value is recorded as 0.7.

Take `C=C1C(=O)N[C@H](C)C(=O)N[C@@H](CCCNC(=N)N)C(=O)N[C@@H](C(=O)O)[C@H](C)C(=O)N[C@@H](CCCNC(=N)N)C(=O)N[C@@H](/C=C/C(C)=C/[C@H](C)[C@H](Cc2ccccc2)OC)[C@H](C)C(=O)N[C@@H](C(=O)O)CCC(=O)N1C` [compound 10, RR] (R[Adda][d(γGlu)][NMeDha][dA]R[dAsp(3S-Me)]-OH; lactam N-7): in data set [1], the “toxicity in the present assay compared with 1 (times lower)” value is on record as “about 500 times”. The “transporter selectivity (in words)” value in data set [1] is “most OATP1B3 selective”. In addition, the IC50 in [1] (read-out: IC50 values (potency grouping)) was > 100 nM; in data set [4] (read-out: IC50 HeLa B3) it was 580 nM; in data set [5] (read-out: IC50 HeLa B1), 3800 nM; in the data set on HeLa Control cells [6] it was > 10000 nM. Moreover, the “Ratio IC50 B1/B3 HeLa” value in data set [4] is reported as 6.6. The “PP2A inhibition compared with 1” value in the data set on PP2A was “about twenty times weaker”.

Take `C=C1C(=O)N[C@H](C)C(=O)N[C@@H](CC(C)C)C(=O)N[C@@H](C(=O)O)[C@H](C)C(=O)N[C@@H](CCCNC(=N)N)C(=O)N[C@@H](/C=C/C(C)=C/[C@H](C)[C@H](Cc2ccccc2)OC)[C@H](C)C(=O)N[C@@H](C(=O)O)CCC(=O)N1C` [compound 1, MC-LR, reference compound] (R[Adda][d(γGlu)][NMeDha][dA]L[dAsp(3S-Me)]-OH; lactam N-7): the IC50 in the data set on RKO control cells (read-out: IC50 RKO control) is > 1000 nM; in [7] (read-out: IC50 HeLa B3), 5.1 nM; in data set [2] (read-out: IC50 RKO B3), 26.9 nM; in [8] it was 1 nM; with HeLa Control cells [9] (read-out: IC50 HeLa Control), > 1000 nM; in data set [10], 8.2 nM. Besides, the “transporter selectivity (in words)” value in [1] was “least OATP1B3 selective”. For the same molecule, the “Ratio IC50 B1/B3 HeLa” value in [7] stood at 0.2. For the same molecule, the “Ratio IC50 B1/B3 RKO” value in [2] was found to be 0.3.

With `C/C=C1/NC(=O)CC[C@H](C(=O)O)NC(=O)[C@@H](C)[C@H](/C=C/C(C)=C/[C@H](C)[C@H](Cc2ccccc2)OC)NC(=O)[C@H](Cc2c[nH]c3ccccc23)NC(=O)C[C@H](C(=O)O)NC(=O)[C@H](CCc2ccc(O)cc2)NC(=O)[C@@H](C)NC1=O` [compound 20, [D-Asp^3,(E)-Dhb^7]MC-HtyW], the results for the half-inhibitory concentration (IC50) (in the data set with RKO control cells (3 h); in data set [2] (human); with OATP1B1 [3]) were > 100 nM, 2.57 nM and 4.9 nM, respectively. In data set [2], the “Ratio IC50 B1/B3 RKO” value worked out at 1.9.

`C=C1C(=O)N[C@H](C)C(=O)N[C@@H](CC(C)CC)C(=O)N[C@@H](C(=O)O)CC(=O)N[C@@H](CCCNC(=N)N)C(=O)N[C@@H](/C=C/C(C)=C/[C@H](C)[C@H](Cc2ccccc2)OC)[C@H](C)C(=O)N[C@@H](C(=O)O)CCC(=O)N1C` (stereo partly drawn) [compound 3, [D-Asp^3]MC-HilR]: the IC50 with RKO control cells (3 h) is > 1000 nM; in data set [2] (human), 142 nM; in the data set on OATP1B1 [3] it was 57 nM. The “transporter selectivity (in words)” value in data set [1] is listed as “least OATP1B3 selective”. Besides, in data set [2], the “Ratio IC50 B1/B3 RKO” value was determined as 0.4.

Consider `C/C=C1/NC(=O)CC[C@H](C(=O)O)NC(=O)[C@@H](C)[C@H](/C=C/C(C)=C/[C@H](C)[C@H](Cc2ccccc2)OC)NC(=O)[C@H](CCCNC(=N)N)NC(=O)C[C@H](C(=O)O)NC(=O)[C@H](CC(C)CC)NC(=O)[C@@H](C)NC1=O` (stereo partly drawn) [compound 4, [D-Asp^3,(E)-Dhb^7]MC-HilR], for which the IC50 is 993 nM with RKO control cells (3 h), 3.8 nM in [2] (human) and 56.9 nM with OATP1B1 [3]. Besides, the “transporter selectivity (in words)” value in [1] is given as “most OATP1B3 selective”. In data set [2], the “Ratio IC50 B1/B3 RKO” value is given as 15.0.

For the molecule `C/C=C1/NC(=O)CC[C@H](C(=O)O)NC(=O)[C@@H](C)[C@H](/C=C/C(C)=C/[C@H](C)[C@H](Cc2ccccc2)OC)NC(=O)[C@H](Cc2ccc(O)cc2)NC(=O)C[C@H](C(=O)O)NC(=O)[C@H](CCc2ccc(O)cc2)NC(=O)[C@@H](C)NC1=O` [compound 18, [D-Asp^3,(E)-Dhb^7]MC-HtyY], the “IC50 values (potency grouping)” value in data set [1] was “sub-nanomolar”. Further, in [1], the “transporter selectivity (in words)” value is listed as “most OATP1B3 selective”. Also, in data set [7], the “Ratio IC50 B1/B3 HeLa” value amounted to 6.6. The half-maximal inhibitory concentration (IC50) is 0.078 nM in [7] (human), 0.515 nM with OATP1B1 [11] and > 10 nM with HeLa Control cells [9] (24 h).

In the case of `C/C=C1/NC(=O)CC[C@H](C(=O)O)NC(=O)[C@@H](C)[C@H](/C=C/C(C)=C/[C@H](C)[C@H](Cc2ccccc2)OC)NC(=O)[C@H](CCc2ccc(O)cc2)NC(=O)C[C@H](C(=O)O)NC(=O)[C@H](CCc2ccc(O)cc2)NC(=O)[C@@H](C)NC1=O` [compound 19, [D-Asp^3,(E)-Dhb^7]MC-HtyHty], the “IC50 values (potency grouping)” value in data set [1] is given as “sub-nanomolar”. In addition, the “Ratio IC50 B1/B3 HeLa” value in [7] was 2.2. The IC50 in data set [7] (human) was 0.18 nM; in the data set with OATP1B1 [11], 0.39 nM; in the data set with HeLa Control cells [9] (24 h) it was > 10 nM.

The values are drawn from paper PMC3948918 (PLoS ONE, 2014).
